Assay results reported in US4464385A, “Treatment of diabetic complications with hydantoins” (Alcon Laboratories, Inc., priority 1982, dated 1984).

Tested on: cataracts in rats
Assay: Prevention or retardation of cataracts in galactose-fed rats
Type: in vivo, rat
Conditions: for % of Total Eyes, N (nuclear cataract) / % of Total Eyes, S (snowflake) / Number of Eyes Observed, + (vacuole) / Number of Eyes Observed, - (Normal) / Number of Eyes Observed, N (nuclear cataract) / Number of Eyes Observed, S (snowflake) / Number of Eyes Observed, ± / % of Total Eyes, + (vacuole) / % of Total Eyes, - (Normal): 30% galactose diet, A,C,E 0.0025%, B,D 0.01%
Summary of the method: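 Rats given test compound mixed into diet (by % of total feed weight; 0.01% designed to supply 20 mg/kg/day) ad libitum for thirty days after a two-day chow acclimatization, twelve animals per treatment. Eyes examined by handheld ophthalmoscope and/or penlight and each eye graded.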

With “dl-spiro-(6-methylthio-chroman-4,4'-imidazolidine)-2',5'-dione” the “% of Total Eyes, N (nuclear cataract)” value (Study Day 14) was 0%, the “% of Total Eyes, S (snowflake)” value (Study Day 14) was 58.4% and the “Number of Eyes Observed, + (vacuole)” value (Study Day 14) was 10 eyes. For the same substance, the “Number of Eyes Observed, - (Normal)” value (Study Day 14) was 0 eyes, the “Number of Eyes Observed, N (nuclear cataract)” value (shortened to “Number of Eyes Observed, N”) (Study Day 14) was 0 eyes and the “Number of Eyes Observed, S (snowflake)” value (Study Day 14) was 14 eyes. The “Number of Eyes Observed, ±” value (Study Day 14) was 0 eyes, the “% of Total Eyes, + (vacuole)” value (Study Day 16) was 37.5% and the “% of Total Eyes, - (Normal)” value (Study Day 16) was 0%. For the same substance, the “% of Total Eyes, N (nuclear cataract)” value (Study Day 16) was 0%, the “% of Total Eyes, S (snowflake)” value (Study Day 16) was 62.5% and the “Number of Eyes Observed, + (vacuole)” value (Study Day 16) was 9 eyes. For the same substance, the “Number of Eyes Observed, - (Normal)” value (Study Day 16) was 0 eyes, the “Number of Eyes Observed, N” value (Study Day 16) was 0 eyes and the “Number of Eyes Observed, S (snowflake)” value (Study Day 16) was 15 eyes. For the same substance, the “Number of Eyes Observed, ±” value (Study Day 16) was 0 eyes, the “% of Total Eyes, + (vacuole)” value (Study Day 18) was 25.0% and the “% of Total Eyes, - (Normal)” value (Study Day 18) was 0%. The “% of Total Eyes, N (nuclear cataract)” value (Study Day 18) was 0%, the “% of Total Eyes, S (snowflake)” value (Study Day 18) was 75.0% and the “Number of Eyes Observed, + (vacuole)” value (Study Day 18) was 6 eyes. For the same substance, the “Number of Eyes Observed, - (Normal)” value (Study Day 18) was 0 eyes, the “Number of Eyes Observed, N” value (Study Day 18) was 0 eyes and the “Number of Eyes Observed, S (snowflake)” value (Study Day 18) was 0 eyes. For the same substance, the “Number of Eyes Observed, ±” value (Study Day 18) was 0 eyes, the “% of Total Eyes, + (vacuole)” value (Study Day 20) was 20.8% and the “% of Total Eyes, - (Normal)” value (Study Day 20) was 0%. The “% of Total Eyes, N (nuclear cataract)” value (Study Day 20) was 0%, the “% of Total Eyes, S (snowflake)” value (Study Day 20) was 79.2% and the “Number of Eyes Observed, + (vacuole)” value (Study Day 20) was 5 eyes. The “Number of Eyes Observed, - (Normal)” value (Study Day 20) was 0 eyes, the “Number of Eyes Observed, N” value (Study Day 20) was 0 eyes and the “Number of Eyes Observed, S (snowflake)” value (Study Day 20) was 19 eyes. The “Number of Eyes Observed, ±” value (Study Day 20) was 0 eyes, the “% of Total Eyes, + (vacuole)” value (Study Day 22) was 8.3% and the “% of Total Eyes, - (Normal)” value (Study Day 22) was 0%. The “% of Total Eyes, N (nuclear cataract)” value (Study Day 22) was 4.2%, the “% of Total Eyes, S (snowflake)” value (Study Day 22) was 87.5% and the “Number of Eyes Observed, + (vacuole)” value (Study Day 22) was 2 eyes. For the same substance, the “Number of Eyes Observed, - (Normal)” value (Study Day 22) was 0 eyes, the “Number of Eyes Observed, N” value (Study Day 22) was 1 eyes and the “Number of Eyes Observed, S (snowflake)” value (Study Day 22) was 21 eyes. The “Number of Eyes Observed, ±” value (Study Day 22) was 0 eyes, the “% of Total Eyes, + (vacuole)” value (Study Day 24) was 4.2% and the “% of Total Eyes, - (Normal)” value (Study Day 24) was 0%. For the same substance, the “% of Total Eyes, N (nuclear cataract)” value (Study Day 24) was 4.2%, the “% of Total Eyes, S (snowflake)” value (Study Day 24) was 91.7% and the “Number of Eyes Observed, + (vacuole)” value (Study Day 24) was 1 eyes. For the same substance, the “Number of Eyes Observed, - (Normal)” value (Study Day 24) was 0 eyes, the “Number of Eyes Observed, N” value (Study Day 24) was 1 eyes and the “Number of Eyes Observed, S (snowflake)” value (Study Day 24) was 22 eyes. The “Number of Eyes Observed, ±” value (Study Day 24) was 0 eyes, the “% of Total Eyes, + (vacuole)” value (Study Day 26) was 0% and the “% of Total Eyes, - (Normal)” value (Study Day 26) was 0%. The “% of Total Eyes, N (nuclear cataract)” value (Study Day 26) was 4.2%, the “% of Total Eyes, S (snowflake)” value (Study Day 26) was 95.8% and the “Number of Eyes Observed, + (vacuole)” value (Study Day 26) was 0 eyes. The “Number of Eyes Observed, - (Normal)” value (Study Day 26) was 0 eyes, the “Number of Eyes Observed, N” value (Study Day 26) was 1 eyes and the “Number of Eyes Observed, S (snowflake)” value (Study Day 26) was 23 eyes. For the same substance, the “Number of Eyes Observed, ±” value (Study Day 26) was 0 eyes, the “% of Total Eyes, + (vacuole)” value (Study Day 28) was 0% and the “% of Total Eyes, - (Normal)” value (Study Day 28) was 0%. For the same substance, the “% of Total Eyes, N (nuclear cataract)” value (Study Day 28) was 12.5%, the “% of Total Eyes, S (snowflake)” value (Study Day 28) was 87.5% and the “Number of Eyes Observed, + (vacuole)” value (Study Day 28) was 0 eyes. For the same substance, the “Number of Eyes Observed, - (Normal)” value (Study Day 28) was 0 eyes, the “Number of Eyes Observed, N” value (Study Day 28) was 3 eyes and the “Number of Eyes Observed, S (snowflake)” value (Study Day 28) was 21 eyes. The “Number of Eyes Observed, ±” value (Study Day 28) was 0 eyes, the “% of Total Eyes, + (vacuole)” value (Study Day 30) was 0% and the “% of Total Eyes, - (Normal)” value (Study Day 30) was 0%. For the same substance, the “% of Total Eyes, N (nuclear cataract)” value (Study Day 30) was 16.7%, the “% of Total Eyes, S (snowflake)” value (Study Day 30) was 83.3% and the “Number of Eyes Observed, + (vacuole)” value (Study Day 30) was 0 eyes. For the same substance, the “Number of Eyes Observed, - (Normal)” value (Study Day 30) was 0 eyes, the “Number of Eyes Observed, N” value (Study Day 30) was 4 eyes and the “Number of Eyes Observed, S (snowflake)” value (Study Day 30) was 20 eyes. For the same substance, the “Number of Eyes Observed, ±” value (Study Day 30) was 0 eyes, the “inhibitory capacity relative to diastereomeric mixture of 6-sulfinyl derivative” value (fold greater) was 1.5 and the “time to vacuole formation, 0.0025% methylthio versus 0.01% sulfinyl” value (methylthio 0.0025%, sulfinyl 0.01% in diet) was “not different from each other”.
